Results: patent US20220184099A1, “METHODS OF USING OBETICHOLIC ACID” (Intercept Pharmaceuticals, Inc., priority 2018, published 2022)

Key:
[1] = Plasma PK of total OCA (AUC0-24 h), serial sampling on Day 1 and Day 28 of dosing; format: in vivo, human
Experimental: (§1) To evaluate safety, the PK and PD of OCA administered at 10 mg/day or 25 mg/day in subjects with compensated cirrhosis due to NASH was compared to healthy controls in a randomized, double blind, single center, Phase 3 study. Sixteen subjects with cirrhosis due to NASH and 8 healthy, age- and weight-matched, subjects were randomized in a 1:1 ratio to QD OCA 10 mg or OCA 25 mg for 28 days, according to FIG. 1 and Table 1. Extensive serial PK sampling over a 24-hour period was performed on Day 1 and Day 28 of dosing.

[2] = Liver biochemistry (ALT, AST, GGT, ALP, bilirubin) during 28 days of QD OCA; format: in vivo, human
Experimental: as §1

FXR = biological target: T1, FXR (Homo sapiens, UniProt Q96RI1); experiment: PD markers of FXR activation (C4, FGF-19) during 28 days of QD OCA; format: in vivo
T1 construct: FGF-19 released from gut enterocytes (in response to FXR agonist) into portal circulation down regulates endogenous bile acid synthesis in the liver; endogenous in cells; host or cells: human study subjects in vivo (gut enterocytes, liver)
T1 sequence (Q96RI1 1-486): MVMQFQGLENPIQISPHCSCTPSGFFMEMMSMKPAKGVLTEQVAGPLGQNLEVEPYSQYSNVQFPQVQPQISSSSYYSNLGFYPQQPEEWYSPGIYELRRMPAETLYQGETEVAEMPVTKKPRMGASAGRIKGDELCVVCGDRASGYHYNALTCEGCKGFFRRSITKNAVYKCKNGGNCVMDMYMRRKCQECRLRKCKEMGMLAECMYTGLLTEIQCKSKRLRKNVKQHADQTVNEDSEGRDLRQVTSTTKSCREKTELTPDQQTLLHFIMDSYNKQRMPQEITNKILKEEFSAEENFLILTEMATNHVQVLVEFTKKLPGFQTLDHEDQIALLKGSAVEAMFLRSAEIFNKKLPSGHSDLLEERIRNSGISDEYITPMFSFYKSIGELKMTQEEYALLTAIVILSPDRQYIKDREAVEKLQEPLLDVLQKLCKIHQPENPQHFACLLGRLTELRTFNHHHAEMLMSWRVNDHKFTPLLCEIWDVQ
Text: In one aspect, obeticholic acid may mediate its action primarily via FXR agonism, wherein FGF-19 released from gut enterocytes (in response to FXR agonist) into portal circulation down regulates endogenous bile acid synthesis in the liver. The present disclosure comprehends a method of measuring FXR agonist activity by, for example, measuring release of FGF-19 into the bloodstream or circulation of a patient administered with OCA. Levels of FGF-19 may be measured by methods known in the art, such as those described herein.
In some embodiments, the plasma levels of FGF-19, a marker of FXR activation, are determined using a qualified method and a validated method using an enzyme-linked immunosorbent assay (ELISA) method. The plasma concentrations of FGF-19 may be quantitated at predose and after administration of dose.
In some examples, a monoclonal antibody specific for FGF-19 is pre-coated onto a microplate. Standards, quality controls and samples are pipetted into the wells and any FGF-19 present is bound by the immobilized antibody. After washing away any unbound substances, an enzyme-linked polyclonal antibody specific for FGF-19 is added to the wells. Following a wash to remove any unbound antibody-enzyme reagent, a substrate solution is added to the wells and color develops in the proportion to the amount of FGF-19 bound in the initial step. The color development is stopped and the intensity of the color is measured. The calibration range of the method is 15.625 pg/ml to 1000 pg/ml for FGF-19 using a 100 μl aliquot of standard curve, quality control and sample. In some embodiments, no minimum required dilution is used. In other embodiments, samples may be subjected to a 3× minimum required dilution.
To evaluate safety, the PK and PD of OCA administered at 10 mg/day or 25 mg/day in subjects with compensated cirrhosis due to NASH was compared to healthy controls in a randomized, double blind, single center, Phase 3 study. […]

[3] = Albumin, creatinine, platelets and INR levels in subjects of the clinical study; format: in vivo, human; conditions: for Albumin, % Change at Day 28 / Albumin, Day 28 / Creatinine, % Change at Day 28 / Creatinine, Day 28 / Platelets, % Change at Day 28 / Platelets, Day 28: median
Experimental: as §1

[4] = Adverse events, safety and tolerability of OCA 10 mg or 25 mg QD for 28 days; format: in vivo, human; conditions: for Total adverse events (AEs): both doses
Experimental: as §1

[5] = both dose groups, throughout the 28-day study

Plasma exposure of total OCA in subjects with cirrhosis due to NASH relative to healthy subjects ([1]; daily OCA 10 mg and 25 mg): higher
Hepatic exposure of OCA ([1]; despite increased systemic exposure, FIGS. 11A and 11B): remain nominal
PD effects (FXR; both doses of OCA): favorable PD effects
C4 (FXR; both dosing groups): suppression
FGF-19 (FXR; both dosing groups): activation
Albumin levels ([3]; 28 days): No changes
INR ([3]; 28 days): No changes
Platelet levels ([3]; 28 days): No changes
Albumin, % Change at Day 28 ([3]; Healthy, 10 mg OCA (n = 4)): 2.3%
Albumin, Day 28 ([3]; Healthy, 10 mg OCA (n = 4)): 4.5 g/dL
Creatinine, % Change at Day 28 ([3]; Healthy, 10 mg OCA (n = 4)): −1.6%
Creatinine, Day 28 ([3]; Healthy, 10 mg OCA (n = 4)): 0.96 mg/dL
Platelets, % Change at Day 28 ([3]; Healthy, 10 mg OCA (n = 4)): 0.4%
Platelets, Day 28 ([3]; Healthy, 10 mg OCA (n = 4)): 262.0 10^9/L
Albumin, % Change at Day 28 ([3]; Healthy, 25 mg OCA (n = 4)): −4.0%
Albumin, Day 28 ([3]; Healthy, 25 mg OCA (n = 4)): 4.0 g/dL
Creatinine, % Change at Day 28 ([3]; Healthy, 25 mg OCA (n = 4)): 8.3%
Creatinine, Day 28 ([3]; Healthy, 25 mg OCA (n = 4)): 0.78 mg/dL
Platelets, % Change at Day 28 ([3]; Healthy, 25 mg OCA (n = 4)): 4.0%
Platelets, Day 28 ([3]; Healthy, 25 mg OCA (n = 4)): 261.0 10^9/L
Albumin, % Change at Day 28 ([3]; NASH CP-A, 10 mg OCA (n = 8)): −3.9%
Albumin, Day 28 ([3]; NASH CP-A, 10 mg OCA (n = 8)): 4.0 g/dL
Creatinine, % Change at Day 28 ([3]; NASH CP-A, 10 mg OCA (n = 8)): 4.3%
Creatinine, Day 28 ([3]; NASH CP-A, 10 mg OCA (n = 8)): 0.88 mg/dL
Platelets, % Change at Day 28 ([3]; NASH CP-A, 10 mg OCA (n = 8)): −9.7%
Platelets, Day 28 ([3]; NASH CP-A, 10 mg OCA (n = 8)): 101.5 10^9/L
Albumin, % Change at Day 28 ([3]; NASH CP-A, 25 mg OCA (n = 8)): −6.5%
Albumin, Day 28 ([3]; NASH CP-A, 25 mg OCA (n = 8)): 4.0 g/dL
Creatinine, % Change at Day 28 ([3]; NASH CP-A, 25 mg OCA (n = 8)): 0.8%
Creatinine, Day 28 ([3]; NASH CP-A, 25 mg OCA (n = 8)): 0.87 mg/dL
Platelets, % Change at Day 28 ([3]; NASH CP-A, 25 mg OCA (n = 8)): −2.0%
Platelets, Day 28 ([3]; NASH CP-A, 25 mg OCA (n = 8)): 155.5 10^9/L
SMILES: CC[C@H]1[C@@H](O)[C@@H]2[C@H](CC[C@]3(C)[C@@H]([C@H](C)CCC(=O)O)CC[C@@H]23)[C@@]2(C)CC[C@@H](O)C[C@@H]12 [OCA, 3α,7α-dihydroxy-6α-ethyl-5β-cholan-24-oic acid]
Bilirubin levels (direct and total) ([2]; 10 mg and 25 mg groups, 28 days): no apparent trend
ALP ([2]; OCA 25 mg group, mostly driven by subjects with elevated ALP at Baseline): moderate increase
ALT [2, 5]: improvements
AST [2, 5]: improvements
GGT [2, 5]: improvements
Subjects who discontinued treatment due to elevated bilirubin levels ([4]; NASH, OCA 25 mg, advanced disease with portal hypertension and history of hyperbilirubinemia, discontinued on Day 25): One
Liver-related adverse events reported ([4]; all subjects): one
Serious adverse events ([4]; all subjects): No serious adverse events were observed
Severity of all AEs ([4]; all subjects, no trend for liver related AEs): mild or moderate
Overall safety and tolerability ([4]; daily OCA at 10 mg and 25 mg): generally safe and well tolerated
Subjects experiencing adverse events ([4]; healthy subjects on 10 mg): 3 subjects
Subjects experiencing adverse events ([4]; healthy subjects on 25 mg): 2 subjects
Total adverse events (AEs) ([4]; healthy subjects): 5 AEs
Subjects experiencing adverse events ([4]; healthy subjects, both doses (of 8)): 5 subjects
Subjects experiencing adverse events ([4]; subjects with NASH on 10 mg): 2 subjects
Subjects experiencing adverse events ([4]; subjects with NASH on 25 mg): 4 subjects
Total adverse events (AEs) ([4]; subjects with NASH): 13 AEs
Subjects experiencing adverse events ([4]; subjects with NASH, both doses (of 16)): Six
Subjects reporting mild or moderate pruritus ([4]; subjects with NASH, no relationship to dose): Four
Time for bilirubin levels to return to normal after discontinuation of OCA ([4]; the one NASH subject on 25 mg who discontinued): 1 days
